Assay results published in article PMC11090211 (Chemico-biological interactions, 2024).
Like-named read-outs stand apart in the source and are kept apart here.

What was measured:
[1] = target: T1, H44R/H48Q yeast ADH (Saccharomyces cerevisiae, UniProt P00330, H45R/H49Q); type: biochemical; conditions: for VD1, isotope effect for oxidation of ethanol: 550 mM ethanol, 2 mM NAD^+, single concentration, duplicate
[2] = target: T2, H44R/H48Q yeast alcohol dehydrogenase (Saccharomyces cerevisiae, UniProt P00330, H45R/H49Q)
[3] = system: wild-type yeast alcohol dehydrogenase; conditions: cited from earlier work
[4] = system: H48Q yeast alcohol dehydrogenase; conditions: pH 7.3, 30 °C, cited from earlier work
[5] = target: T3, wild-type yeast ADH (Saccharomyces cerevisiae, UniProt P00330); conditions: cited from earlier work
T3 sequence (P00330 1-348): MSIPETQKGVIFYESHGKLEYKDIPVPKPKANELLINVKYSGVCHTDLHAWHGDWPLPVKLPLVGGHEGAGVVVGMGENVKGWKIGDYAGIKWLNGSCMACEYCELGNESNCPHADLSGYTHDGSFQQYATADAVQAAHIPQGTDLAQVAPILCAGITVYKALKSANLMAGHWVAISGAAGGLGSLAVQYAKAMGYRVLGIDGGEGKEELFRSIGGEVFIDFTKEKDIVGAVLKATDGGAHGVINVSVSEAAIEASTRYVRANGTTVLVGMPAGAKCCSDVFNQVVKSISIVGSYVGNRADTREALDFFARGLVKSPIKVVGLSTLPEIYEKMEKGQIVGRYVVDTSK

[6] = target: T1, H44R/H48Q yeast ADH; type: biochemical
[7] = system: H44R yeast alcohol dehydrogenase; conditions: pH 7.3, 30 °C, cited from earlier work
[8] = target: T2, H44R/H48Q yeast alcohol dehydrogenase; assay: biochemical
[9] = target: T4, H44R yeast ADH (Saccharomyces cerevisiae, UniProt P00330, H45R); assay: Inactivation by diethyl pyrocarbonate; type: biochemical; conditions: pH 8.0, 30 °C
[10] = target: T3, wild-type yeast ADH; assay: Inactivation by diethyl pyrocarbonate; type: biochemical; conditions: pH 8.0, 30 °C
[11] = target: T5, H48Q yeast ADH (Saccharomyces cerevisiae, UniProt P00330, H49Q); assay: Inactivation by diethyl pyrocarbonate; type: biochemical; conditions: pH 8.0, 30 °C
[12] = target: T3, wild-type yeast ADH; conditions: cited from earlier work; remark: listed apart in the source
[13] = target: T1, H44R/H48Q yeast ADH; assay: Inactivation by diethyl pyrocarbonate; type: biochemical; conditions: pH 8.0, 30 °C
[14] = target: T3, wild-type yeast ADH; conditions: ethanol or ethanol-d5 15–200 mM, 10 mM NAD^+, 30 °C, ref 6 and 9, cited from earlier work
[15] = target: T5, H48Q yeast ADH; conditions: ethanol or ethanol-d5 15–200 mM, 10 mM NAD^+, 30 °C, ref 6 and 9, cited from earlier work
[16] = target: T4, H44R yeast ADH; conditions: ethanol or ethanol-d5 15–200 mM, 10 mM NAD^+, 30 °C, ref 6 and 9, cited from earlier work
[17] = 83 mM potassium phosphate, 40 mM KCl
[18] = read-out: Kia, inhibition (dissociation) constant for NAD^+, 83 mM potassium phosphate, 40 mM KCl
[19] = pH 7.3, 30 °C, 83 mM potassium phosphate, 40 mM KCl
[20] = read-out: Ki, CF3CH2OH, 83 mM potassium phosphate, 40 mM KCl
[21] = 90 μM diethyl pyrocarbonate, 33 mM sodium phosphate buffer
[22] = after 90 μM diethyl pyrocarbonate
[23] = read-out: Kiq, inhibition (dissociation) constant for NADH, 83 mM potassium phosphate, 40 mM KCl
[24] = read-out: Kiq, inhibition (dissociation) constant for NADH, pH 7.3, 30 °C, 83 mM potassium phosphate, 40 mM KCl

T4 sequence (P00330 2-348 H45R): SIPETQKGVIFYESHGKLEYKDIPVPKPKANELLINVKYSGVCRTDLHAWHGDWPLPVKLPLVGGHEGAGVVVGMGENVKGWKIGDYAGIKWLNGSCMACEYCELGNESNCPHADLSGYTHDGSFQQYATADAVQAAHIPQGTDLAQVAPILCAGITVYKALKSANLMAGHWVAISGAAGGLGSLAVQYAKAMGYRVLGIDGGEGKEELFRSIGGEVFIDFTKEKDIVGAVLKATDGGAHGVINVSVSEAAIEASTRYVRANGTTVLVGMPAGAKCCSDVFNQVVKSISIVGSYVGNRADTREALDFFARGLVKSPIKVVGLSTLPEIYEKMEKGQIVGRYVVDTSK
T5 sequence (P00330 2-348 H49Q): as the sequence (P00330 2-348 H45R) above, with R44H, H48Q counted along it
T1 sequence (P00330 2-348 H45R/H49Q): as the sequence (P00330 2-348 H45R) above, with H48Q counted along it
T2 sequence (P00330 2-348 H45R/H49Q): as the sequence (P00330 2-348 H45R) above, with H48Q counted along it

CCCCO [1-butanol]
average isotope effect, butanol oxidation ([1]; 5 mM 1-butanol or 1-butanol-d9, 2 mM NAD^+, pH range from 6.5 to 10.5): 4.2
Catalytic efficiency with butanol, fold lower than with ethanol [2]: about 20 fold
Km ([2]; 1-butanol): ~30 mM
Catalytic efficiency with butanol, fold lower than with ethanol [3]: about 20 fold

N=C([O-])c1ccc[n+]([C@@H]2O[C@H](COP(=O)(O)OP(=O)([O-])OC[C@H]3O[C@@H](n4cnc5c(N)ncnc54)[C@H](O)[C@@H]3O)[C@@H](O)[C@H]2O)c1.[Li+] [NAD^+]
Ka, Michaelis constant for NAD^+ [4, 17]: 100 µM
Ki [4, 18]: 410 µM
Kia, limiting value ka ([5]; EH form): 0.54 ± 0.06 mM
V1/EtKa ([5]; at pH 7): 1570 (at pH 7) mM^−1s^−1
pK of pH dependence of Kia [5]: 8.1 ± 0.2
slope of pH dependence of V1/EtKa [5]: −0.11 ± 0.02
Ka, Michaelis constant for NAD^+ [2, 19]: 320 µM
pK of pH dependence of Kia [6]: ~pH independent
pK of pH dependence of V1/EtKa [6]: 8.03 ± 0.04
Ki ([6]; read-out: Kia, at pH 7): 160 µM
Ka, Michaelis constant for NAD^+ [7, 17]: 150 µM
Ki [7, 18]: 260 µM
Ka, Michaelis constant for NAD^+ [3, 19]: 160 µM
Ki ([3]; read-out: Kia, inhibition (dissociation) constant for NAD^+, pH 7.3, 30 °C, 83 mM potassium phosphate, 40 mM KCl): 0.95 mM

CC=O [acetaldehyde]
V2/EtkpKiq ([4]; NADH and acetaldehyde): 19000 mM^−2 s^−1
Kp, Michaelis constant for acetaldehyde [4, 17]: 12 mM
V2/Et, turnover number for acetaldehyde reduction [4, 17]: 3000 s⁻¹
V2/Etkp, catalytic efficiency for acetaldehyde reduction [4, 17]: 250 mM⁻¹ s⁻¹
isotope effect (for VD2/Kp), acetaldehyde reduction ([1]; 1 mM acetaldehyde with 0.15 mM NADH, over the pH range): ~ 2
V1/EtKp, limiting value ka ([5]; EH form, NADH and acetaldehyde): ka 3200 ± 200 mM^−1s^−1
V2/Et, limiting value ka ([5]; EH form): 3600 ± 300 s⁻¹
pK of pH dependence of V1/EtKp ([5]; NADH and acetaldehyde): 7.7 ± 0.1
pK of pH dependence of V2/Et [5]: 7.8 ± 0.2
Kp, Michaelis constant for acetaldehyde [2, 19]: 22 mM
V2/Et, turnover number for acetaldehyde reduction [2, 19]: 1040 s⁻¹
V2/Etkp, catalytic efficiency for acetaldehyde reduction [2, 19]: 47 mM⁻¹ s⁻¹
pK of pH dependence of V2/Et [6]: 9.6 ± 0.1
V2/Et, limiting value ka ([6]; EH form): ka 850 ± 60 s^−1
V1/EtKp, limiting value ka ([6]; EH form, NADH and acetaldehyde): ka 32 ± 3 mM^−1s^−1
pK of pH dependence of V1/EtKp ([6]; NADH and acetaldehyde): 9.5 ± 0.1
V2/EtkpKiq ([7]; NADH and acetaldehyde): 6100 mM^−2 s^−1
Kp, Michaelis constant for acetaldehyde [7, 17]: 4.7 mM
V2/Et, turnover number for acetaldehyde reduction [7, 17]: 460 s⁻¹
V2/Etkp, catalytic efficiency for acetaldehyde reduction [7, 17]: 98 mM⁻¹ s⁻¹
V2/EtkpKiq ([3]; NADH and acetaldehyde, pH 7.3, 30 °C): 77000 mM^−2 s^−1
Kp, Michaelis constant for acetaldehyde [3, 19]: 0.74 mM
V2/Et, turnover number for acetaldehyde reduction [3, 19]: 1800 s⁻¹
Ki ([3]; read-out: Kip, intercept inhibition constant, product inhibition studies, pH 7.3, 30 °C): 1.5 mM

OCC(F)(F)F [CF3CH2OH, 2,2,2-trifluoroethanol, reference compound]
Ki [4, 20]: 33000 µM
Ki [7, 20]: 19000 µM
Ki ([3]; read-out: Ki, CF3CH2OH, pH 7.3, 30 °C, 83 mM potassium phosphate, 40 mM KCl): 2.5 mM
Ki [8]: 55 mM

CCOC(=O)OC(=O)OCC [diethyl pyrocarbonate]
Inactivation constant [9, 21]: 31 M⁻¹ s⁻¹
Residual activity (% of initial) [9, 22]: 30 % of initial
Inactivation constant [10, 21]: 180 M⁻¹ s⁻¹
Residual activity (% of initial) [10, 22]: 3.1 % of initial
Inactivation constant [11, 21]: 25 M⁻¹ s⁻¹
Residual activity (% of initial) [11, 22]: 55 % of initial
pK of the rate of inactivation by diethyl pyrocarbonate ([12]; enzyme-NADH complex): 8.7
pK value of the rate of inactivation by diethyl pyrocarbonate ([12]; free enzyme): 7.1
Inactivation constant ([13]; 120 μM diethyl pyrocarbonate, 33 mM sodium phosphate buffer): 11 M⁻¹ s⁻¹
Residual activity (% of initial) ([13]; after 120 μM diethyl pyrocarbonate): 64 % of initial

NC(=O)C1=CN([C@@H]2O[C@H](COP(=O)([O-])OP(=O)([O-])OC[C@H]3O[C@@H](n4cnc5c(N)ncnc54)[C@H](O)[C@@H]3O)[C@@H](O)[C@H]2O)C=CC1.[Na+].[Na+] [NADH]
Kq, Michaelis constant for NADH [4, 17]: 110 pM
Ki [4, 23]: 13 µM
Kiq, limiting value ka ([5]; EH form): 15 ± 2 µM
V2/Etkq, limiting value [5]: 32 ± 3 µM⁻¹ s⁻¹
pK of pH dependence of Kiq [5]: 7.4 ± 0.2
pK of pH dependence of V2/Etkq [5]: 7.8 ± 0.2
Kq, Michaelis constant for NADH [2, 19]: 42 pM
Ki [2, 24]: 3.5 µM
pK of pH dependence of Kiq [6]: 8.9 ± 0.2
pK of pH dependence of V2/Etkq [6]: 8.8 ± 0.1
Kiq, limiting value ka ([6]; EH form): ka 7.9 ± 1.4 μM
V2/Etkq, limiting value ka ([6]; EH form): ka 16 ± 2 μM^−1s^−1
rate constant for dissociation, calculated from V2Kiq/EtKq ([6]; essentially pH independent): 120 s⁻¹
Kq, Michaelis constant for NADH [7, 17]: 10 pM
Ki [7, 23]: 16 µM
Kq, Michaelis constant for NADH [3, 19]: 94 pM
Ki [3, 24]: 0.031 mM

CCO [ethanol]
V1/Et, turnover number for ethanol oxidation [4, 17]: 30 s⁻¹
VD1, isotope effect for oxidation of ethanol ([1]; pH 6 (MES)): 2.8
VD1, isotope effect for oxidation of ethanol ([1]; pH 7 (MOPS)): 4.2
VD1, isotope effect for oxidation of ethanol ([1]; pH 8 (TAPS)): 2.9
VD1, isotope effect for oxidation of ethanol ([1]; pH 9 (TAPS)): 2.3
VD1, isotope effect for oxidation of ethanol ([1]; pH 10 (CAPSO)): 1.8
VD1, isotope effect for oxidation of ethanol ([14]; pH 6): 2.0
VD1, isotope effect for oxidation of ethanol ([14]; pH 7): 1.8
VD1, isotope effect for oxidation of ethanol ([14]; pH 8): 1.8
VD1, isotope effect for oxidation of ethanol ([14]; pH 9): 1.4
VD1, isotope effect for oxidation of ethanol ([14]; pH 10): 1.3
V1/EtKb, limiting value ka ([5]; EH form): 3.5 ± 0.9 mM⁻¹ s⁻¹
pK of pH dependence of V1/Et [5]: 7.3 ± 0.1
pK of pH dependence of V1/EtKb [5]: 7.8 ± 0.2
V1/Et, turnover number for ethanol oxidation [2, 19]: 24 s⁻¹
KbKia/Ka, slope inhibition constant ([2]; product inhibition studies, pH 7.3, 30 °C): 36 mM
VD1, isotope effect for oxidation of ethanol ([15]; pH 6): 3.9
VD1, isotope effect for oxidation of ethanol ([15]; pH 7): 4.2
VD1, isotope effect for oxidation of ethanol ([15]; pH 8): 3.3
VD1, isotope effect for oxidation of ethanol ([15]; pH 9): 2.9
VD1, isotope effect for oxidation of ethanol ([15]; pH 10): 2.3
VD1, isotope effect for oxidation of ethanol ([16]; pH 6): 3.5
VD1, isotope effect for oxidation of ethanol ([16]; pH 7): 1.7
VD1, isotope effect for oxidation of ethanol ([16]; pH 8): 1.2
VD1, isotope effect for oxidation of ethanol ([16]; pH 9): 1.1
VD1, isotope effect for oxidation of ethanol ([16]; pH 10): 1.1
pK of pH dependence of V1/EtKb [6]: 8.5 ± 0.1
pK1 of pH dependence of V1/Et ([6]; deprotonation of H2E, NAD^+ and ethanol): 7.0 ± 0.2
pK2 of pH dependence of V1/Et ([6]; deprotonation of HE, NAD^+ and ethanol): 9.2 ± 0.3
V1/Et, turnover number for ethanol oxidation [7, 17]: 60 s⁻¹
V1/Et, turnover number for ethanol oxidation [3, 19]: 360 s⁻¹
